Assay results taken from patent US8263044B2, “Stilbene like compounds as novel HDAC inhibitors” (Orchid Research Laboratories Limited, priority 2005, dated 2012).
Read-outs that look alike come from different tables or passages of the source.

Legend:
NCIH 460 cells = test: cells; settings: for GI50: read-out: NCIH460 GI50; for CC50: read-out: NCIH460 LC50
Experimental: (§1) Experimental drugs are screened for anti-cancer activity in three cell lines for their GI50, TGI and LC50 values (using five concentrations for each compound). The cell lines are maintained in DMEM containing 10% fetal bovine serum. 96 well micro titer plates are inoculated with cells in 100 μL for 24 h at 37° C., 5% CO2, 95% air and 100% relative humidity. 5000 HCT 116 cells/well, 5000 NCIH 460 cells/well and 5000 U251 cells/well are plated. A separate plate with these cell lines is also inoculated to determine cell viability before the addition of the compounds (T0) (See Table I).
(§2) Following 24-hour incubation, experimental drugs are added to the 96 well plates. Each plate contains one of the above cell lines and the following in triplicate: five different concentrations (0.01, 0.1, 1, 10 and 100 μM) of four different compounds, appropriate dilutions of a cytotoxic standard and control (untreated) wells. Compounds are dissolved in DMSO to make 20 mM stock solutions on the day of drug addition and frozen at −20° C. Serial dilutions of these 20 mM stock solutions are made in complete growth medium such that 100 μL of these drug solutions in medium, of final concentrations equaling 0.01, 0.1, 1, 10 and 100 μM can be added to the cells in triplicate. […] (See Table I).
(§3) For T0 measurement, 24 hours after seeding the cells, 10 μL of 3-(4,5-Dimethyl-2-thiazolyl)-2,5-diphenyl-2H-tetrazolium (MTT) solution per well is added and incubation carried out for 3 hours at 37° C., 5% CO2, 95% air and 100% relative humidity, protected from light. Cells incubated with compounds for 48 hours are treated similarly except with the addition of 20 μL MTT solution per well and a subsequent incubation under the same conditions. After 3 hours of MTT incubation, well contents are aspirated carefully followed by addition of 150 μL DMSO per well. Plates are agitated to ensure solution of the formazan crystals in DMSO and absorbance read at 570 nm. (See Table I).
(§4) Percent growth is calculated for each compound's concentration relative to the control and zero measurement wells (T0; viability right before compound addition).
(§5) If a test well's O.D. value is lower than the T0 measurement for that cell line, then, % Growth=(test−zero)/zero×100

HCT 116 cells = test: cells; settings: for GI50: read-out: HCT116 GI50; for CC50: read-out: HCT116 LC50
Experimental: as §1, §2, §3, §4, §5

MDAMB231/U251 [1] = test: cells; settings: 48 h; for GI50: read-out: MDAMB231/U251 GI50
Experimental: as §1, §2, §3, §4, §5

MDAMB231/U251 [2] = test: cells; settings: 48 h, read-out: MDAMB231/U251 LC50
[3] = tested on: HDAC activity (Mouse Liver Extract); test: Histone Deacetylase (HDAC) Inhibition Assay using Boc-Lys (Ac)-AMC Substrate; type: biochemical; settings: mouse liver enzyme; for HDAC Inhibition 1 μM: inhibitor at 1 μM; for HDAC Inhibition 1 μM / HDAC Inhibition 10 μM: in % (unit assumed); for HDAC Inhibition 10 μM: inhibitor at 10 μM
Experimental: Histone Deacetylase (HDAC) Inhibition Assay using Boc-Lys (Ac)-AMC Substrate: Inhibition of HDAC has been implicated to modulate transcription and to induce apoptosis or differentiation in cancer cells. The fluorometric assay provides a fast and fluorescence based method that eliminates radioactivity, extractions or chromatography, as used in traditional assays. The assay based on two steps. First, the HDAC fluorometric substrate, which comprises an acetylated lysine side chain, is incubated with a sample containing HDAC activity (Mouse Liver Extract). Deacetylation of the substrate sensitizes the substrate, in the second step; treatment with the Trypsin stop solution produces a fluorophore that can be easily analyzed using fluorescence plate reader.
Assay was done in 96 well black microplate and total volume of the assay is 100 ul. Mouse liver enzyme is diluted 1:6 with HDAC buffer. Enzyme cocktail made of 10 ul of diluted enzyme and 30 ul of HDAC buffer. 40 ul of enzyme cocktail dispensed into each well. 10 ul of different concentrations of inhibitor added in to each well, except enzyme control well. Preincubated the plate at 30° C. for 5 minutes. The HDAC reaction is started by adding 50 ul of HDAC substrate (Boc-Lys (Ac)-AMC Substrate) solution. Incubated the plate at 30° C. for 30 minutes. Adding 100 ul of Trypsin stop solution stops the reaction. The plate is incubated again at 30° C. for 20-30 minutes. The release of AMC is monitored by measuring the fluorescence at excitation wavelength of 365 or 360 nm and emission wavelength of 440 or 460 nm. Buffer and substrate alone kept for blank subtraction. (Dennis Wegener et al, Anal. Biochem, 321, 2003, 202-208).

[4] = tested on: NCIH460, HCT116, MDAMB231/U251; test: Anti-cancer screen, mean GI50 over the cell lines; type: cell-based; settings: mean over the three cell lines; no unit in table
Experimental: as §1, §2, §3
Percent growth is calculated for each compound's concentration relative to the control and zero measurement wells (T0; viability right before compound addition). […]

[5] = NCIH460, MTT, 48 h, tested at 0.01-100 μM, no unit in table
[6] = HCT116, MTT, 48 h, tested at 0.01-100 μM, no unit in table
[7] = MDAMB231/U251, MTT, tested at 0.01-100 μM, no unit in table

## CSc1ccc(/C=C(\C(=O)NCCCCCC(=O)NO)c2ccc(C(F)(F)F)cc2)cc1 [Example 38, (2Z)-3-(4-Thiomethylphenyl)-2-(4-trifluoromethylphenyl)-N-[6-(hydroxyamino)-6-oxohexyl]acrylamide]
NCIH 460 cells; Homo sapiens, NCI-H460, 48 h
  GI50: 6 µM
  CC50: 64 µM
HCT 116 cells; Homo sapiens, HCT-116, 48 h
  GI50: 5.5 µM
  CC50: 65 µM
MDAMB231/U251 [1]
  GI50: 0.07 µM
MDAMB231/U251 [2]
  CC50: 60 µM
[3]
  HDAC Inhibition 1 μM: 59.26
  HDAC Inhibition 10 μM: 97.74
[4]
  GI50: 3.9 µM

## COc1cc(/C=C(\C(=O)NCCCCCC(=O)N(C)OC)c2ccc(O)cc2)cc(OC)c1OC [Example 7, (2Z)-3-(3,4,5-Trimethoxyphenyl)-2-(4-hydroxyphenyl)-N-[6-(N,O dimethylamine)-6-oxohexyl]acrylamide]
NCIH 460 cells; Homo sapiens, NCI-H460, 48 h
  GI50: 0.01 µM
  CC50: 10 µM
HCT 116 cells; Homo sapiens, HCT-116, 48 h
  GI50: 0.98 µM
  CC50: > 100 µM
MDAMB231/U251 [1]
  GI50: 0.8 µM
MDAMB231/U251 [2]
  CC50: > 100 µM
[3]
  HDAC Inhibition 1 μM: 7.3
  HDAC Inhibition 10 μM: 3.8
[4]
  GI50: 0.6 µM

## CSc1ccc(/C=C(\C(=O)NCCCCCC(=O)NO)c2ccc([N+](=O)[O-])cc2)cc1 [Example 41, (2Z)-3-(4-Thiomethylphenyl)-2-(4-nitrophenyl)-N-[6-(hydroxyamino)-6-oxohexyl]acrylamide]
NCIH 460 cells; Homo sapiens, NCI-H460, 48 h
  GI50: 15 µM
  CC50: 94 µM
HCT 116 cells; Homo sapiens, HCT-116, 48 h
  GI50: 6 µM
  CC50: 90 µM
MDAMB231/U251 [1]
  GI50: 9 µM
MDAMB231/U251 [2]
  CC50: 90 µM
[3]
  HDAC Inhibition 1 μM: 68.69
  HDAC Inhibition 10 μM: 92.83
[4]
  GI50: 10 µM

## O=C(CCCCCNC(=O)/C(=C\c1ccc(F)c(C(F)(F)F)c1)c1ccc([N+](=O)[O-])cc1)NO [Example 24, (2Z)-3-(4-Fluoro-3-trifluoromethylphenyl)-2-(4-nitrophenyl)-N-[6-(hydroxyamino)-6-oxohexyl]acrylamide]
NCIH 460 cells; Homo sapiens, NCI-H460, 48 h
  GI50: 16 µM
  CC50: 82 µM
HCT 116 cells; Homo sapiens, HCT-116, 48 h
  GI50: 5 µM
  CC50: > 100 µM
MDAMB231/U251 [1]
  GI50: 0.3 µM
MDAMB231/U251 [2]
  CC50: 75 µM
[3]
  HDAC Inhibition 1 μM: 46.1
  HDAC Inhibition 10 μM: 99.5
[4]
  GI50: 7.21 µM

## COc1cc(/C=C(\C(=O)NCCCCCC(=O)Nc2ccccc2O)c2ccc(O)cc2)cc(OC)c1 [Example 5]
NCIH 460 cells; Homo sapiens, NCI-H460, 48 h
  GI50: 50 µM
  CC50: 100 µM
HCT 116 cells; Homo sapiens, HCT-116, 48 h
  GI50: 35 µM
  CC50: 90 µM
MDAMB231/U251 [1]
  GI50: 65 µM
MDAMB231/U251 [2]
  CC50: 92 µM
[3]
  HDAC Inhibition 1 μM: 19.6
  HDAC Inhibition 10 μM: 35.3
[4]
  GI50: 50 µM

## Cc1ncsc1/C=C(\C(=O)NCCCCCC(=O)NO)c1ccc(C(F)(F)F)cc1 [Example 26, (2Z)-3-(4-Methylthiazol-5-yl)-2-(4-trifluoromethylphenyl)-N-[6-(hydroxyamino)-6-oxohexyl]acrylamide]
NCIH 460 cells; Homo sapiens, NCI-H460, 48 h
  GI50: 34 µM
  CC50: > 100 µM
HCT 116 cells; Homo sapiens, HCT-116, 48 h
  GI50: 9 µM
  CC50: 100 µM
MDAMB231/U251 [1]
  GI50: 10 µM
MDAMB231/U251 [2]
  CC50: 85 µM
[3]
  HDAC Inhibition 1 μM: 39.38
  HDAC Inhibition 10 μM: 76.69
[4]
  GI50: 17.7 µM

## COc1ccc(/C=C(\C(=O)NCCCCCC(=O)NO)c2ccccc2)cc1 [Example 29, (2Z)-3-(4-Methoxyphenyl)-2-(phenyl)-N-[6-(hydroxyamino)-6-oxohexyl]acrylamide]
NCIH 460 cells; Homo sapiens, NCI-H460, 48 h
  GI50: 28 µM
  CC50: 89 µM
HCT 116 cells; Homo sapiens, HCT-116, 48 h
  GI50: 5 µM
  CC50: 78 µM
MDAMB231/U251 [1]
  GI50: 6 µM
MDAMB231/U251 [2]
  CC50: 90 µM
[4]
  GI50: 13 µM

## COc1cc(/C=C(\C(=O)NCCCCCC(=O)Nc2cccc(O)c2)c2ccc(F)cc2)cc(OC)c1 [Example 3]
NCIH 460 cells; Homo sapiens, NCI-H460, 48 h
  GI50: 50 µM
  CC50: > 100 µM
HCT 116 cells; Homo sapiens, HCT-116, 48 h
  GI50: 40 µM
  CC50: > 100 µM
MDAMB231/U251 [1]
  GI50: 73 µM
MDAMB231/U251 [2]
  CC50: > 100 µM
[3]
  HDAC Inhibition 1 μM: −6.41
  HDAC Inhibition 10 μM: −6.45
[4]
  GI50: 54.3 µM

## CSc1ccc(/C=C(\C(=O)NCCCCCC(=O)NO)c2cccs2)cc1 [Example 43, (2Z)-3-(4-Thiomethylphenyl)-2-(thiophene-2-yl)-N-[6-(hydroxyamino)-6-oxohexyl]acrylamide]
NCIH 460 cells; Homo sapiens, NCI-H460, 48 h
  GI50: 10 µM
  CC50: > 100 µM
HCT 116 cells; Homo sapiens, HCT-116, 48 h
  GI50: 5 µM
  CC50: 70 µM
MDAMB231/U251 [1]
  GI50: 0.05 µM
MDAMB231/U251 [2]
  CC50: 75 µM
[3]
  HDAC Inhibition 1 μM: 89.26
  HDAC Inhibition 10 μM: 100
  IC50: 0.26 µM
[4]
  GI50: 5.02 µM

## O=C(CCCCCNC(=O)/C(=C\c1ccc(F)c(F)c1)c1ccc(F)cc1)Nc1nccs1 [Example 36]
NCIH 460 cells; Homo sapiens, NCI-H460, 48 h
  GI50: 2 µM
  CC50: > 100 µM
HCT 116 cells; Homo sapiens, HCT-116, 48 h
  GI50: > 100 µM
  CC50: > 100 µM
MDAMB231/U251 [1]
  GI50: 0.2 µM
MDAMB231/U251 [2]
  CC50: > 100 µM
[4]
  GI50: 1.1 µM

## CSc1ccc(/C=C(\C(=O)NCCCCCC(=O)NOCc2ccccc2)c2ccc(F)cc2)cc1 [Example 51, (2Z)-3-(4-Thiomethylphenyl)-2-(4-fluorophenyl)-N-[6-(O-benzyl hydroxyamino)-6-oxohexyl]acrylamide]
NCIH 460 cells; [5]
  NCIH460 TGI: 80
  GI50: 30 µM
  CC50: > 100 µM
HCT 116 cells; [6]
  HCT116 TGI: 65
  GI50: 10 µM
  CC50: 84 µM
MDAMB231/U251 [1]; [7]
  MDAMB231/U251 TGI: 35
  GI50: 9.6 µM
MDAMB231/U251 [1]; read-out: MDAMB231/U251 LC50, MDAMB231/U251, MTT, tested at 0.01-100 μM, no unit in table
  CC50: 86 µM
[4]
  GI50: 16.5 µM

## O=C(CCCCCNC(=O)/C(=C\c1cc(F)cc(F)c1F)c1ccc([N+](=O)[O-])cc1)NO [Example 27, (2Z)-3-(2,3,5-Trifluorophenyl)-2-(4-nitrophenyl)-N-[6-(hydroxyamino)-6-oxohexyl]acrylamide]
NCIH 460 cells; Homo sapiens, NCI-H460, 48 h
  GI50: 30 µM
  CC50: 96 µM
HCT 116 cells; Homo sapiens, HCT-116, 48 h
  GI50: 7 µM
  CC50: > 100 µM
MDAMB231/U251 [1]
  GI50: 7.5 µM
MDAMB231/U251 [2]
  CC50: 82 µM
[4]
  GI50: 14.8 µM

## Cc1cc(/C=C(\C(=O)NCCCCCC(=O)NO)c2ccc(F)cc2)ccc1F [Example 45, (2Z)-3-(4-Fluoro-3-methylphenyl)-2-(4-fluorophenyl)-N-[6-(hydroxyamino)-6-oxohexyl]acrylamide]
NCIH 460 cells; Homo sapiens, NCI-H460, 48 h
  GI50: 16 µM
  CC50: 89 µM
HCT 116 cells; Homo sapiens, HCT-116, 48 h
  GI50: 6.8 µM
  CC50: 73 µM
MDAMB231/U251 [1]
  GI50: 5 µM
MDAMB231/U251 [2]
  CC50: > 100 µM
[4]
  GI50: 9.3 µM
